Reference: PMC10006169, “A phase I trial of LXS196, a protein kinase C (PKC) inhibitor, for metastatic uveal melanoma” (British Journal of Cancer, 2023)

Test system: patients with MUM
Assay: Adverse events regardless of study drug relationship
Type: in vivo, human
Experimental: Routine safety assessments, including laboratory assessments, physical examinations, vital signs and electrocardiograms (ECGs), were conducted at regular intervals throughout the study and more frequently as needed following patient assessment by the treating physician. Adverse events (AEs) were assessed continuously according to the National Cancer Institute Common Terminology Criteria for Adverse Events (NCI-CTCAE) v4.03.

CC1(N)CCN(c2cccnc2NC(=O)c2nc(-c3ncccc3C(F)(F)F)cnc2N)CC1 [LXS196]
ALT increased, all grades (300 mg BID (RDE)): 5 (27.8) n (%)
ALT increased, grade ≥3 (300 mg BID (RDE)): 1 (5.6) n (%)
AST increased, all grades (300 mg BID (RDE)): 4 (22.2) n (%)
AST increased, grade ≥3 (300 mg BID (RDE)): 2 (11.1) n (%)
Abdominal pain upper, all grades (300 mg BID (RDE)): 3 (16.7) n (%)
Abdominal pain upper, grade ≥3 (300 mg BID (RDE)): 0 n (%)
Asthenia, all grades (300 mg BID (RDE)): 4 (22.2) n (%)
Asthenia, grade ≥3 (300 mg BID (RDE)): 0 n (%)
Blood creatinine increased, all grades (300 mg BID (RDE)): 2 (11.1) n (%)
Blood creatinine increased, grade ≥3 (300 mg BID (RDE)): 0 n (%)
Constipation, all grades (300 mg BID (RDE)): 4 (22.2) n (%)
Constipation, grade ≥3 (300 mg BID (RDE)): 0 n (%)
Decreased appetite, all grades (300 mg BID (RDE)): 2 (11.1) n (%)
Decreased appetite, grade ≥3 (300 mg BID (RDE)): 0 n (%)
Dermatitis acneiform, all grades (300 mg BID (RDE)): 3 (16.7) n (%)
Dermatitis acneiform, grade ≥3 (300 mg BID (RDE)): 0 n (%)
Diarrhoea, all grades (300 mg BID (RDE)): 11 (61.1) n (%)
Diarrhoea, grade ≥3 (300 mg BID (RDE)): 1 (5.6) n (%)
Dry skin, all grades (300 mg BID (RDE)): 4 (22.2) n (%)
Dry skin, grade ≥3 (300 mg BID (RDE)): 0 n (%)
Fatigue, all grades (300 mg BID (RDE)): 6 (33.3) n (%)
Fatigue, grade ≥3 (300 mg BID (RDE)): 0 n (%)
Hypotension, all grades (300 mg BID (RDE)): 3 (16.7) n (%)
Hypotension, grade ≥3 (300 mg BID (RDE)): 0 n (%)
Nasopharyngitis, all grades (300 mg BID (RDE)): 2 (11.1) n (%)
Nasopharyngitis, grade ≥3 (300 mg BID (RDE)): 0 n (%)
Nausea, all grades (300 mg BID (RDE)): 15 (83.3) n (%)
Nausea, grade ≥3 (300 mg BID (RDE)): 0 n (%)
Neutropenia, all grades (300 mg BID (RDE)): 0 n (%)
Neutropenia, grade ≥3 (300 mg BID (RDE)): 0 n (%)
Oedema peripheral, all grades (300 mg BID (RDE)): 5 (27.8) n (%)
Oedema peripheral, grade ≥3 (300 mg BID (RDE)): 1 (5.6) n (%)
Patients with ≥1 AE, all grades (300 mg BID (RDE)): 18 (100) n (%)
Patients with ≥1 AE, grade ≥3 (300 mg BID (RDE)): 8 (44.4) n (%)
Rash, all grades (300 mg BID (RDE)): 5 (27.8) n (%)
Rash, grade ≥3 (300 mg BID (RDE)): 0 n (%)
Vomiting, all grades (300 mg BID (RDE)): 8 (44.4) n (%)
Vomiting, grade ≥3 (300 mg BID (RDE)): 0 n (%)
ALT increased, all grades (300 mg QD): 4 (26.7) n (%)
ALT increased, grade ≥3 (300 mg QD): 1 (6.7) n (%)
AST increased, all grades (300 mg QD): 1 (6.7) n (%)
AST increased, grade ≥3 (300 mg QD): 1 (6.7) n (%)
Abdominal pain upper, all grades (300 mg QD): 2 (13.3) n (%)
Abdominal pain upper, grade ≥3 (300 mg QD): 0 n (%)
Asthenia, all grades (300 mg QD): 3 (20.0) n (%)
Asthenia, grade ≥3 (300 mg QD): 0 n (%)
Blood creatinine increased, all grades (300 mg QD): 2 (13.3) n (%)
Blood creatinine increased, grade ≥3 (300 mg QD): 0 n (%)
Constipation, all grades (300 mg QD): 4 (26.7) n (%)
Constipation, grade ≥3 (300 mg QD): 0 n (%)
Decreased appetite, all grades (300 mg QD): 0 n (%)
Decreased appetite, grade ≥3 (300 mg QD): 0 n (%)
Dermatitis acneiform, all grades (300 mg QD): 1 (6.7) n (%)
Dermatitis acneiform, grade ≥3 (300 mg QD): 0 n (%)
Diarrhoea, all grades (300 mg QD): 6 (40.0) n (%)
Diarrhoea, grade ≥3 (300 mg QD): 0 n (%)
Dry skin, all grades (300 mg QD): 1 (6.7) n (%)
Dry skin, grade ≥3 (300 mg QD): 0 n (%)
Fatigue, all grades (300 mg QD): 8 (53.3) n (%)
Fatigue, grade ≥3 (300 mg QD): 0 n (%)
Hypotension, all grades (300 mg QD): 1 (6.7) n (%)
Hypotension, grade ≥3 (300 mg QD): 0 n (%)
Nasopharyngitis, all grades (300 mg QD): 3 (20.0) n (%)
Nasopharyngitis, grade ≥3 (300 mg QD): 0 n (%)
Nausea, all grades (300 mg QD): 10 (66.7) n (%)
Nausea, grade ≥3 (300 mg QD): 0 n (%)
Neutropenia, all grades (300 mg QD): 3 (20.0) n (%)
Neutropenia, grade ≥3 (300 mg QD): 1 (6.7) n (%)
Oedema peripheral, all grades (300 mg QD): 2 (13.3) n (%)
Oedema peripheral, grade ≥3 (300 mg QD): 0 n (%)
Patients with ≥1 AE, all grades (300 mg QD): 14 (93.3) n (%)
Patients with ≥1 AE, grade ≥3 (300 mg QD): 4 (26.7) n (%)
Rash, all grades (300 mg QD): 4 (26.7) n (%)
Rash, grade ≥3 (300 mg QD): 0 n (%)
Vomiting, all grades (300 mg QD): 6 (40.0) n (%)
Vomiting, grade ≥3 (300 mg QD): 0 n (%)
ALT increased, all grades (400 mg BID): 3 (50.0) n (%)
ALT increased, grade ≥3 (400 mg BID): 1 (16.7) n (%)
AST increased, all grades (400 mg BID): 3 (50.0) n (%)
AST increased, grade ≥3 (400 mg BID): 1 (16.7) n (%)
Abdominal pain upper, all grades (400 mg BID): 0 n (%)
Abdominal pain upper, grade ≥3 (400 mg BID): 0 n (%)
Asthenia, all grades (400 mg BID): 2 (33.3) n (%)
Asthenia, grade ≥3 (400 mg BID): 0 n (%)
Blood creatinine increased, all grades (400 mg BID): 0 n (%)
Blood creatinine increased, grade ≥3 (400 mg BID): 0 n (%)
Constipation, all grades (400 mg BID): 2 (33.3) n (%)
Constipation, grade ≥3 (400 mg BID): 0 n (%)
Decreased appetite, all grades (400 mg BID): 2 (33.3) n (%)
Decreased appetite, grade ≥3 (400 mg BID): 0 n (%)
Dermatitis acneiform, all grades (400 mg BID): 1 (16.7) n (%)
Dermatitis acneiform, grade ≥3 (400 mg BID): 0 n (%)
Diarrhoea, all grades (400 mg BID): 3 (50.0) n (%)
Diarrhoea, grade ≥3 (400 mg BID): 0 n (%)
Dry skin, all grades (400 mg BID): 1 (16.7) n (%)
Dry skin, grade ≥3 (400 mg BID): 0 n (%)
Fatigue, all grades (400 mg BID): 1 (16.7) n (%)
Fatigue, grade ≥3 (400 mg BID): 0 n (%)
Hypotension, all grades (400 mg BID): 4 (66.7) n (%)
Hypotension, grade ≥3 (400 mg BID): 1 (16.7) n (%)
Nasopharyngitis, all grades (400 mg BID): 0 n (%)
Nasopharyngitis, grade ≥3 (400 mg BID): 0 n (%)
Nausea, all grades (400 mg BID): 3 (50.0) n (%)
Nausea, grade ≥3 (400 mg BID): 0 n (%)
Neutropenia, all grades (400 mg BID): 1 (16.7) n (%)
Neutropenia, grade ≥3 (400 mg BID): 0 n (%)
Oedema peripheral, all grades (400 mg BID): 1 (16.7) n (%)
Oedema peripheral, grade ≥3 (400 mg BID): 0 n (%)
Patients with ≥1 AE, all grades (400 mg BID): 6 (100) n (%)
Patients with ≥1 AE, grade ≥3 (400 mg BID): 4 (66.7) n (%)
Rash, all grades (400 mg BID): 1 (16.7) n (%)
Rash, grade ≥3 (400 mg BID): 0 n (%)
Vomiting, all grades (400 mg BID): 3 (50.0) n (%)
Vomiting, grade ≥3 (400 mg BID): 0 n (%)
